Assay results from patent US10195466B2, “Method for treating skin cancer using radiation therapy” (HACKENSACK UNIVERSITY MEDICAL CENTER, priority 2014, dated 2019).

Legend:
[1] = test system: melanoma cell lines WC00046, WC00060 and WC00081; test: Cell survival (cell count) after irradiation with or without mitochondrial inhibitors; assay type: cell-based, human; details: compared to untreated cells, FIG. 1B; for cell killing of melanoma cells: inhibitor combined with high dose rate 2,400 mu/min, 5 μM in medium; for survival rates: melanoma cells, doses 2 Gy, 4 Gy and 8 Gy at 2,400 mu/min and 400 mu/min
Experimental: Three melanoma cell lines; WC00046, WC00060 and WC00081 were used in these examples, in which WC00046 was the most aggressive cell line (metastatic stage II), WC00060 was least aggressive (stage I, primary tumor site) and WC00081 was the medium aggressive (malignant melanoma primary site), purchased from Coriell Institute of Camden, N.J. The primary HEM (human epidermal melanocytes) was purchased from ScienCell Research Laboratories of Carlsbad, Calif. (#2220). Melanoma cells were grown in RPMI (Invitrogen) with 10% FBS, 1% Penicillin/Streptomycin. HEM cells were grown in Mel-M media (ScienCell Research Laboratories, Catalog number 2201) supplemented with 5 ML, Mel GS (ScienCell Research Laboratories, Catalog number 2252), 2.5 ML FBS (ScienCell Research Laboratories, Catalog number 0002) and 5 ML penicillin/Streptomycin solution (ScienCell Research Laboratories, Catalog number 0503), which is a complete medium designed for optimal growth of normal human dermal-derived melanocytes in vitro.
Two mitochondrial inhibitors Oligomycin (Sigma Aldrich # O4876) and Rotenone (Sigma Aldrich #R8875) were used. An optimal concentration of 0.5 uM were used for both melanoma cell lines and HEM added to the growth medium and removed after the irradiation. Dilutions were made in DMSO according to manufacturer's instructions.
Melanoma cell lines WC00046, WC00060 and WC00081 (purchased from Coriell Institute of Camden, N.J.) were seeded at 5×10^5 cells in T-25 culture flasks (BD-Falcon, Franklin Lakes, N.J., Catalog #356536 or equivalent) containing either RPMI media (Invitrogen, Carlsbad, Calif., Catalog #11875119 or equivalent) with 10% fetal bovine serum (FBS; ATCC Catalog #30-2020 or equivalent), 1% Penicillin/Streptomycin (GIBCO, Carlasbad, Calif., Catalog #15140 or equivalent) or RPMI media with 10% FBS, 1% Penicillin/Streptomycin, 5 μM Oligomycin (Sigma-Aldrich, St. Louis, Mo., Catalog #04876) or RPMI media with 10% FBS, 1% Penicillin/Streptomycin, 5 μM Rotenone (Sigma-Aldrich, St. Louis, Mo., Catalog #R8875). Human Epidermal Melanocytes (HEM) (ScienCell Research Laboratories, Carlsbad, Calif., Catalog #2220) were seeded at 5×10^5 cells in a T-25 culture flask (BD-Falcon, Franklin Lakes, N.J., Catalog #356536 or equivalent) containing either Mel-M media (ScienCell Research Laboratories, Carlsbad, Calif., Catalog #2201) or Mel-M media, 5 μM Oligomycin or Mel-M media, 5 μM Rotenone. Cells were allowed to settle and adhere to the T-25 culture flasks by overnight incubation in a humidified incubator at 37° C., 5% CO2. […] Cells were counted and cell survival (%) was recorded two (2) days and seven (7) days post radiation.

[2] = test system: Human Epidermal Melanocytes (HEM); test: as above; assay type: cell-based; details: doses 2 Gy, 4 Gy and 8 Gy at 2,400 mu/min and 400 mu/min, compared to untreated cells, FIG. 1B
Experimental: Three melanoma cell lines; WC00046, WC00060 and WC00081 were used in these examples, in which WC00046 was the most aggressive cell line (metastatic stage II), WC00060 was least aggressive (stage I, primary tumor site) and WC00081 was the medium aggressive (malignant melanoma primary site), purchased from Coriell Institute of Camden, N.J. The primary HEM (human epidermal melanocytes) was purchased from ScienCell Research Laboratories of Carlsbad, Calif. (#2220). Melanoma cells were grown in RPMI (Invitrogen) with 10% FBS, 1% Penicillin/Streptomycin. […]
Melanoma cell lines WC00046, WC00060 and WC00081 (purchased from Coriell Institute of Camden, N.J.) were seeded at 5×10^5 cells in T-25 culture flasks (BD-Falcon, Franklin Lakes, N.J., Catalog #356536 or equivalent) containing either RPMI media (Invitrogen, Carlsbad, Calif., Catalog #11875119 or equivalent) with 10% fetal bovine serum (FBS; ATCC Catalog #30-2020 or equivalent), 1% Penicillin/Streptomycin (GIBCO, Carlasbad, Calif., Catalog #15140 or equivalent) or RPMI media with 10% FBS, 1% Penicillin/Streptomycin, 5 μM Oligomycin (Sigma-Aldrich, St. Louis, Mo., Catalog #04876) or RPMI media with 10% FBS, 1% Penicillin/Streptomycin, 5 μM Rotenone (Sigma-Aldrich, St. Louis, Mo., Catalog #R8875). […] Cells were counted and cell survival (%) was recorded two (2) days and seven (7) days post radiation.

HEM = test: Colony formation (clonogenic) assay after irradiation; assay type: cell-based, human; details: HEM treated with mitochondrial inhibitors and irradiated; FIG. 4B
Experimental: (§1) Radiated cells were washed with 1× phosphate buffer saline (PBS), trypsinized and harvested in corning tubes (15 ml, BD Falcon). These cells were serially diluted (1:100, 1:1000, 1:10000) and plated in Petri-dishes (Tissue culture Petri dishes, BD Falcon) with complete media and allowed to grow colonies for 7-21 days. Colonies were stained with Hematoxylin for 30 min after fixing the cells in 100% ethanol for about 20-30 min. Petridishes with stained colonies were washed in water, dried overnight and counts were recorded.
(§2) The colony formation assay, or clonogenic assay, is used to determine the ability of a cell to proliferate (i.e., maintain its reproductive ability to form a colony or clone). This assay has been widely used in radiation biology to assess the effects of ionizing radiation on cells (Sadagopan, R. et al., “Characterization and clinical evaluation of a novel IMRT quality assurance system.” Journal of Applied Clinical Medical Physics 10.2 (2009)). In this study, three (3) melanoma cell lines were used to compare the effects of different radiation dose rates on cell proliferation. Melanoma cell lines were selected based on their known resistance to radiation therapy. Human epidermal melanocytes (HEM) were used to determine the effect of ionizing radiation on normal cells.
(§3) Cells were maintained and irradiated as described in Example 1. Irradiated cells were washed with 1× phosphate buffer saline (PBS) (Sigma Aldrich, St. Louis, Mo., Catalog No. P5493, or equivalent), trypsinized and harvested in 15 mL conical tubes (BD-Falcon, Franklin Lakes, N.J., Catalog #352095 or equivalent). The cells were serially diluted (1:100, 1:1000, 1:10000) and plated in Petri-dishes (BD-Falcon, Franklin Lakes, N.J., Catalog #351007 or equivalent) with the appropriate complete media and allowed to grow colonies for 7-21 days. Colonies were stained with hematoxylin (Sigma-Aldrich, St. Louis, Mo., Catalog #H9627 or equivalent) for 30 minutes after fixing the cells in 100% ethanol (VWR, Radnor, Pa., Catalog #71006-012 or equivalent) for about 20-30 minutes. Petridishes with stained colonies were washed in water, dried overnight and colony counts were recorded.

[3] = test system: melanoma cells WC00046, WC00060 and WC00081; test: as above; assay type: cell-based, human; details: FIG. 4B
Experimental: as §1, §2, §3

melanoma cells [4] = test: MTT cell proliferation assay in irradiated cells; assay type: cell-based, human; details: seven days post-irradiation, relative to irradiation alone, FIG. 2B
Experimental: MTT assay was carried out to measure the cell proliferation in radiated cells. Cells were seeded in […] and incubated with MTT assay reagent (tetrazolium dye). MTT assay is based on the ability of metabolically active cells to reduce the yellow tetrazolium salt (MTT) by to form insoluble purple formazan crystals, which are solubilized by the addition of a detergent and quantified (i.e., color). The MTT Cell Proliferation Assay measures the cell proliferation rate and conversely, when metabolic events lead to apoptosis or necrosis, the reduction in cell viability. The number of assay steps has been minimized as much as possible to expedite sample processing. The MTT Reagent yields low background absorbance values in the absence of cells. For each cell type the linear relationship between cell number and signal produced is established, thus allowing an accurate quantification of changes in the rate of cell proliferation.
An MTT (tetrazolium dye) assay was performed to measure cell proliferation in irradiated melanoma cells and HEM. The MTT assay is based on the ability of metabolically active cells to reduce yellow tetrazolium salt (MTT) to insoluble purple formazan crystals. The formazan crystals are solubized in detergent and quantified by colorimetric analysis. […]

melanoma cells [5] = test: Mitotracker Red assay of mitochondrial activity in irradiated cells; assay type: cell-based, human; details: irradiated cells with mitochondrial respiration blocked, versus non-irradiated control (Dose 0); FIG. 2A
Experimental: Mitotracker Red CMXRos (Invitrogen-M7512) was used for mitotracker assay. Stock solution was prepared in anhydrous DMSO, and the aliquots were stored in −30° C. Stock solution was diluted with culture media prior to the assay. Cells were treated with Mitotracker working solution (200 nM) and incubated for 15 minutes (37° C., 5% CO2). Labeling solution was removed and cells were washed with 1×PBS followed by fixing with 2% PFA (paraformaldehyde) for 30 minutes at room temperature in dark. Cells were washed with 1×PBS and mounted using DAPI and images were taken immediately.
It is well-known that melanoma cells up-regulate mitochondrial respiration to partly overcome the damage caused by radiation treatment (Rafehi, H et al., “Clonogenic assay: adherent cells.” J. Vis. Exp. 2011 Mar. 13;(49). pii: 2573. doi: 10.3791/2573). In this study, Mitotracker® Red was used to determine mitochondrial activity in irradiated melanoma cells and HEM. Mitotracker® Red is a cell permeant mitochondrial probe that diffuses through the plasma membrane of active mitochondria and is retained there even after fixation of cells. That is, mitochondrial activity is a direct measure of the amount of fluorescent Mitotracker® Red accumulated within the mitochondria.
A Mitotracker® Red CMXRos (Invitrogen, Carlsbad, Calif., Catalog #M7512 or equivalent) assay was performed according to manufacturer's instructions. […]

[6] = WC00046, 2,400 mu/min, treated with mitochondrial inhibitors
[7] = WC00046, WC00060 and WC00081, 2,400 mu/min, relative to irradiation alone

| SMILES | cell killing of melanoma cells [1] | survival rates [1] | survival rates [2] | viability and proliferation (HEM) | cell survival (%) [3, 6] | cell survival (%) [3, 7] | cell survival (%) (melanoma cells [4]) | mitochondrial activity (Mitotracker Red fluorescence) (melanoma cells [5]) |
| --- | --- | --- | --- | --- | --- | --- | --- | --- |
| CC[C@H]1/C=C/C=C/C[C@@H](C)[C@H](O)[C@@](C)(O)C(=O)[C@@H](C)[C@H](O)[C@@H](C)C(=O)[C@@H](C)[C@H](O)[C@@H](C)/C=C/C(=O)O[C@@H]2[C@H](C)[C@H](CC1)O[C@]1(CC[C@H](C)[C@H](C[C@@H](C)O)O1)[C@H]2C [Oligomycin] | augment the cell killing | significantly lower survival rates | significantly lower survival rates | retained viability and proliferation | 25% | further reduced | further reduced | reduced below basal levels |
| C=C(C)[C@H]1Cc2c(ccc3c2O[C@@H]2COc4cc(OC)c(OC)cc4[C@@H]2C3=O)O1 [Rotenone] | augment the cell killing | significantly lower survival rates | significantly lower survival rates | retained viability and proliferation | 25% | further reduced | further reduced | reduced below basal levels |
